Experimental data: PubChem BioAssay AID1341 (NMMLSC, 2008)
Values joined by “and” are separate entries in the source; they are usually repeats but may differ in a detail not shown here. Equal values may be shown once.

Molecular target: GTPase HRas (Homo sapiens) (UniProt P01112)
Experiment: activated Ras mutant GTP binding inhibitors, dose response, biochemical, multiplex bead flow cytometry (AID 1341);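 also: GST-tagged constitutively activated Ras mutant immobilized on beads and multiplexed with other GTPases; potency for blocking fluorescent GTP binding to Ras so compounds act as competitors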
Conditions: bead-based flow cytometry, Bodipy-FL-GTP binding

SMILES | EC50
CC(=O)c1c(C)[nH]c(C(=O)N2CCc3ccccc3C2)c1C | 2460 nM
CC(C)Cc1csc(NC(=O)c2ccccc2Cl)c1C(=O)O | 634 nM
Cc1ccc(C)c(OCCn2cc(C(=O)O)c3ccccc32)c1 | 195 nM
COc1ccc(C(=O)c2c(O)cc(-c3ccc(OC)cc3)oc2=O)cc1 | 5960 nM
CC1(C)Cc2c(sc(NC(=S)NC(=O)c3ccccc3)c2C(=O)O)CO1 | 144 nM and 145 nM
Cc1cc(NC(=O)CSc2nc(-c3ccccc3)c(C#N)c(=O)[nH]2)no1 | 11000 nM
Cc1cc(C(=O)O)sc1CNCc1ccccc1Cl | 430 nM
N#Cc1c(-c2ccccc2)nc(SCC(=O)Nc2ccccc2)[nH]c1=O | 1970 nM
